Source: PMC9455805, “Preparation, Characterization and In Vitro Stability of a Novel ACE-Inhibitory Peptide from Soybean Protein” (Foods, 2022)
Entries after “also recorded” stand apart in the source; their conditions may differ. Where two headings read alike, the source gives them in different places. Peptide text beside a SMILES is read from it.

Columns and labels:
[1] = system: ACE; parameters: method as in 5 sources, ref 34 = [34]; PMID 12843654; doi:10.1271/bbb.67.1278; 34. Kuba M. Tanaka K. Tawata S. Takeda Y. Yasuda M. Angiotensin I-converting enzyme inhibitory peptides isolated from tofuyo fermented soybean food Biosci. Biotechnol. Biochem. 2003 67 1278 1283 10.12 ||| ref 33 = [33]; PMID 25410725; doi:10.1002/bab.1321; 33. Sornwatana T. Bangphoomi K. Roytrakul S. Wetprasit N. Choowongkomon K. Ratanapo S. Chebulin: Terminalia chebula Retz. fruit-derived peptide with angiotensin-I–converting enzyme inhibitory activity ||| ref 35 = [35]; doi:10.1016/j.foodchem.2010.05.026; 35. Jiang Z. Tian B. Brodcrob A. Huo G. Production, analysis and in vivo evaluation of novel angiotensin-I-converting enzyme inhibitory peptides from bovine casein Food Chem. 2010 123 779 786 10.1016/ ||| ref 7 = [7]; doi:10.1016/j.foodchem.2009.04.086; 7. Lee S.H. Qian Z.J. Kim S.K. A novel angiotensin I converting enzyme inhibitory peptide from tuna frame protein hydrolysate and its antihypertensive effect in spontaneously hypertensive rats Food Ch ||| ref 36 = [36]; PMID 23140680; doi:10.1016/j.foodchem.2011.01.010; 36. Jang J.H. Jeong S.C. Kim J.H. Lee Y.H. Ju Y.C. Lee J.S. Characterisation of a new antihypertensive angiotensin I-converting enzyme inhibitory peptide from Pleurotus cornucopiae Food Chem. 2011 127; conditions: cited from earlier work; for IC50: read-out: IC50 (ACE, non-competitive peptide)
[2] = system: pepsin and pancreatin; test: In vitro simulated gastrointestinal digestion, then ACE-inhibitory activity assay and ESI-MS; type: in vitro ADME
Description: Pepsin (1 mg) was added, and the mixture was stirred at 37 °C for 2 h. Then, the pH was adjusted to 6 with 0.9 M NaHCO3, and afterwards to 7.5 with 1 M NaOH. Pancreatin (1 mg) was added, and the solution was incubated at 37 °C for 4 h.

[3] = from Pleurotus cornucopiae mushroom

For GDLGKTTTVSNWSPPKYKDTP, the IC50 ([1]; from tuna frame protein hydrolysate) is given as 11.3 µM.

For RLPSEFDLSAFLRA, the “IC50 (ACE, non-competitive peptide)” value [1, 3] is given as 450 µg/mL.

In the case of RLSGQTIEVTSEYLFRH, the “IC50 (ACE, non-competitive peptide)” value [1, 3] is given as 1100 µg/mL.

For N=C(N)NCCC[C@H](NC(=O)[C@H](CC(=O)O)NC(=O)[C@@H](N)CC(N)=O)C(=O)N1CCC[C@H]1C(=O)O [NDRP] (H-NDRP-OH), the “maximal ACE inhibition of the in vitro-digested sample” value ([2]; 10 mg mL−1 in H2O, pepsin, pH 2, 37 °C, 2 h, then pancreatin, pH 7.5, 37 °C, 4 h, enzymes deactivated in boiling water bath 10 min, freeze-dried, read-out ACE assay) was 82.47 ± 1.07%, the “residual ACE-inhibitory activity of the digested sample relative to pure peptide” value ([2]; after pepsin (pH 2, 2 h) and pancreatin (pH 7.5, 4 h) at 37 °C, ratio of maximal ACE inhibition, digested vs pure NDRP) was 94% and the “stability toward in vitro simulated gastrointestinal digestion (in words)” value ([2]; pepsin (pH 2, 2 h) then pancreatin (pH 7.5, 4 h), 37 °C, ACE assay and ESI-MS (peak of intact peptide observed)) was “stable towards gastrointestinal simulated digestion; also recorded: might be resistant to gastrointestinal digestion; also recorded: highly stable”.

For DERF, the “IC50 (ACE, non-competitive peptide)” value ([1]; from bovine casein hydrolysate) is listed as 21 µg/mL.

In the case of DENSKF, the IC50 ([1]; from fruits of T. chebula Retz.) is given as 100 µM.

In the case of RYPSYG, the “IC50 (ACE, non-competitive peptide)” value ([1]; from bovine casein hydrolysate) is listed as 54 µg/mL.
